From patent US20080145317A1, “EFFERVESCENT FORMULATIONS OF FLORFENICOL FOR ADDITION IN DRINKING WATER SYSTEMS” (Schering Corporation, priority 2006, published 2008)

Tests used:
[1] = Dissolution test, USP apparatus 2, paddle agitation at 50 rpm, Milli-Q water; format: physicochemical; details: 25° C., 0.1 mg/mL final
Protocol: The dissolution medium was Milli-Q water maintained at a temperature of 25° C. The effervescent formulations were added directly to the water in the correct amount to achieve a final concentration of 0.1 mg/mL of florfenicol. Aliquots of the resulting solution were withdrawn and analyzed using either UV-VIS spectrophotometry or HPLC, the latter to exclude excipient contribution or degradation of florfenicol. For HPLC analysis, an organic/aqueous mobile phase was used for the separation on a C18, reverse phase column. Detection was performed by UV absorption spectrometry. The percent dissolved was calculated versus an external reference standard prepared at the nominal concentration of the analyte. Pure florfenicol was analyzed as a comparator to assess the effectiveness of the effervescent formulation. Referring now to the tables below, it can be seen that pure florfenicol was only 25% dissolved in 15 minutes and 43% dissolved within 60 minutes. […] Therefore, the effervescent formulation increased the florfenicol rate of dissolution and allowed a complete dissolution within 5 minutes of the addition to water.

[2] = stated in background, no method; cited from earlier work

- % Drug in Solution ([1]; Time 0, pure florfenicol in Milli-Q water): 0%
- % Drug in Solution ([1]; Time 15 (minutes), Milli-Q water): 25%
- % Drug in Solution ([1]; Time 30 (minutes), Milli-Q water): 35%
- % Drug in Solution ([1]; Time 45 (minutes), Milli-Q water): 36%
- % Drug in Solution ([1]; Time 60 (minutes), Milli-Q water): 43%
SMILES: CS(=O)(=O)c1ccc([C@@H](O)[C@@H](CF)NC(=O)C(Cl)Cl)cc1 (relative stereo) [Pure Florfenicol, [R-(R*, S*)]-2,2-Dichloro-N-[1-(fluoromethyl)-2-hydroxy-2-[4-[(methylsulfonyl)phenyl]-ethyl]acetamide]
- water-solubility [2]: 1230 µg/mL
